Assay results published in PubChem BioAssay (NCI).
“And” between values parts separate entries of the source, which are not always exact repeats. Identical values can stand only once.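 Growth conditions: 96-well plates. Treatment: test compound, 48 hours, 5 concentrations. Analysis: linear interpolation between bracketing concentrations; unreached endpoints set to highest concentration. GI50: concentration for 50% inhibition of growth. TGI: concentration producing complete growth inhibition.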

Legend:
Test in all cases: NCI anticancer screen, dose series, 48 h
786-0 renal = tested on: 786-0 renal
OVCAR-3 ovarian = tested on: OVCAR-3 ovarian
SK-OV-3 ovarian = tested on: SK-OV-3 ovarian
CAKI-1 renal = tested on: CAKI-1 renal
TK-10 renal = tested on: TK-10 renal
SF-539 CNS = tested on: SF-539 CNS
HCT-15 colon = tested on: HCT-15 colon
NCI-H226 lung = tested on: NCI-H226 lung
MALME-3M melanoma = tested on: MALME-3M melanoma
SF-268 CNS = tested on: SF-268 CNS

Row | SMILES | TGI (786-0 renal) [µM] | TGI (OVCAR-3 ovarian) | TGI (SK-OV-3 ovarian) [µM] | TGI (CAKI-1 renal) [µM] | TGI (TK-10 renal) [µM] | TGI (SF-539 CNS) [µM] | TGI (HCT-15 colon) [µM] | TGI (NCI-H226 lung) | TGI (MALME-3M melanoma) | TGI (SF-268 CNS) [µM] | GI50 (786-0 renal) [µM] | GI50 (OVCAR-3 ovarian) [µM] | GI50 (SK-OV-3 ovarian) [µM] | GI50 (CAKI-1 renal) [µM] | GI50 (TK-10 renal) [µM] | GI50 (SF-539 CNS) [µM] | GI50 (HCT-15 colon) [µM] | GI50 (NCI-H226 lung) [µM] | GI50 (MALME-3M melanoma) [µM] | GI50 (SF-268 CNS) [µM]
1 | O=C1C(c2ccccc2)=C(O)c2cccc3cccc1c23 | > 100 | > 100 µM | > 100 | > 100 | > 100 | > 100 | > 100 | > 100 µM | > 100 µM | > 100 | – | – | – | – | – | – | – | – | – | –
2 | COc1cc2c[n+](C)c3c4cc(OC)c(OC(C)C)cc4ccc3c2cc1OC | > 100 | 63.8 µM | > 100 | > 100 | > 100 | > 100 | > 100 | > 100 µM | > 100 µM | > 100 | – | – | – | – | – | – | – | – | – | –
3 | CC1=C(c2cccc(O)c2)[C@H](c2ccc(OCCN3CC(CF)C3)cc2)Oc2ccc(O)cc21 | 18.9 | 24.4 µM | 20.6 | 12.9 | 25.1 | 18.3 | 19.6 | 28.2 µM | 13.3 µM | 21.6 | 5.15 | 10.8 | 6.26 | 3.13 | 12 | 5.78 | 6.09 | 10.7 | 3.23 | 6.28
4 | Cc1c(Cl)cccc1C(=O)Nc1nc2c(s1)CN(C(=O)c1ccc(C(F)(F)F)cc1)CC2 | > 33.3 | 0.347 µM | > 50 | > 50 | > 50 | 0.387 | 21.2 | – | 17.8 µM | > 50 | 0.184 | 0.0583 | 0.227 | 0.0711 | 0.934 | 0.0923 | 0.0295 | 0.157 | 0.515 | 0.565
5 | C[C@@H]1[C@H](C)N1CC(O)Cn1ccnc1[N+](=O)[O-] (stereo partly specified) | > 100 | > 100 µM | > 100 | > 100 | > 100 | > 100 | > 100 | > 100 µM | > 100 µM | > 100 | – | – | – | – | – | – | – | – | – | –
6 | COc1cc2c(cc1OC)[C@H](C)N1CCc3cc(OC)c(OC)cc3[C@@H]1C2 | > 100 | > 100 µM | > 100 | > 100 | > 100 | > 100 | > 100 | > 100 µM | > 100 µM | > 100 | – | – | – | – | – | – | – | – | – | –
7 | Cc1cccc(/C=N/NC(=S)N2CCCC2)n1 | 2.85 | 0.843 µM and 0.0848 µM | > 100 | 1.16 | 1.35 | – | > 100 | 7.73 µM and 0.83 µM | 5.18 µM and 0.783 µM | – | 2.45 | 0.28 | – | 3.24 | 4.82 | 0.753 | 0.586 | 0.266 | 1 | 2.29
8 | Cc1cc(NCCCN(C)C)c2ccc3c(ccc4c(NCCCN(C)C)cc(C)nc43)c2n1 | 0.506 | 0.444 µM | 0.507 | 0.673 | 0.573 | 0.487 | 0.543 | 0.88 µM | 0.894 µM | 0.393 | 0.202 | 0.191 | 0.23 | 0.217 | 0.24 | 0.193 | 0.191 | 0.215 | 0.244 | 0.176
9 | COC1CC(O[C@H]2CC[C@@]3(C)[C@H](CC[C@@H]4[C@@H]3CC[C@]3(C)[C@@H](C5=CC(=O)OC5)[C@@H](OC(C)=O)C[C@]43O)C2)OC(C)C1O (stereo partly specified) | < 0.01 | < 0.01 µM | < 0.01 | < 0.01 | < 0.01 | < 0.01 | < 0.01 | < 0.01 µM | < 0.01 µM | < 0.01 | < 0.01 | < 0.01 | < 0.01 | < 0.01 | < 0.01 | < 0.01 | < 0.01 | < 0.01 | < 0.01 | < 0.01
10 | CSc1nnc(CCC(=O)Nc2c(C)cccc2C)o1 | > 100 | > 100 µM | > 100 | > 100 | > 100 | > 100 | > 100 | > 100 µM | > 100 µM | > 100 | – | – | – | – | – | – | – | – | – | –
11 | CC(C)(C)C(=O)OCC1C(=O)OCC1C(=O)N1Cc2cc3ccccc3nc2C1 (stereo unspecified) | 7.69 | 11.8 µM | 29.8 | 3.87 | 6.35 | 12 | 6.36 | 14 µM | 2.98 µM | 24.7 | – | – | – | – | – | – | – | – | – | –
12 | O=C1CCCCCCCCCCC1CN1CCCC1 (stereo unspecified) | 44.7 | > 100 µM | > 100 | > 100 | > 100 | 65.1 | > 100 | > 100 µM | > 100 µM | > 100 | – | – | – | – | – | – | – | – | – | –
